Where a name gives a salt, the structure may show the parent alone.
Target: T1, α-1A adrenoceptor (dog prostate) (Canis lupus, UniProt A0A8I3NK63)
T1 sequence (A0A8I3NK63 1-466): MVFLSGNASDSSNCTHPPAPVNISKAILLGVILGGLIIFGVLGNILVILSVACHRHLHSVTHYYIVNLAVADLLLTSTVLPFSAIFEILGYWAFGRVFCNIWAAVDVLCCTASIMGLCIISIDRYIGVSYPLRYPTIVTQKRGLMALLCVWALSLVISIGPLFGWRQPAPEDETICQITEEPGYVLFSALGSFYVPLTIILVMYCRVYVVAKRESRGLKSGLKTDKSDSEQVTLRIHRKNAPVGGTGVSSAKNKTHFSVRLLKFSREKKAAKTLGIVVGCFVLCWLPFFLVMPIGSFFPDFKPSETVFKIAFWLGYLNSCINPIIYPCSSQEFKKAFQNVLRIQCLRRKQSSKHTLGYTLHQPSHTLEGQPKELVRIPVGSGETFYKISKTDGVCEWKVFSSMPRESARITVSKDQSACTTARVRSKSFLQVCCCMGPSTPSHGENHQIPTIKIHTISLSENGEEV
Assay: Functional antagonism: phenylephrine (PE)-induced contraction of canine prostate strips
Type: cell-based
Conditions: Table 2b, vs phenylephrine, Schild plot
Text: Functional assays indicative of pharmacologically defined α-1 adrenoceptors were used to further characterize compounds. Inhibition of phenylephrine (PE)-induced contraction of canine prostate smooth muscle can be correlated with α-1A adrenoceptor activation. […] For each of these models, agonist dose response curves were repeated against increasing concentrations of test agent to derive a Schild plot [log ([…]) against log (molarity of test agent)] to determine the pA2.
Canine prostate strips were used in vitro as previously described (Hieble, J. P., Boyce, A. J. and Caine, M., Fed. Proc., 45:2609-2614 (1986)), to determine antagonist potencies against phenylephrine-induced contractions.

Row | SMILES | pA2 Dog Prostate [α-1A] | pA2 Dog Prostate [α-1A] (hydrochloride)
1 | COc1cccc2c1[C@@H]1CN(CCn3c(=O)[nH]c4c(sc5ccccc54)c3=O)C[C@H]1CC2 (relative stereo) [Example 2, 3-[2-(trans-9-Methoxy-2,3,3a4,5,9b-hexahydro-[1H]-benz[e]isoindol-1-yl)ethyl]-[1]benzothieno[3,2-d]pyrimidine-2,4(1H,3H)-dione hydrochloride] | 7.81 | –
2 | COc1cccc2c1CC[C@H]1CN(CCn3c(=O)[nH]c4c(oc5ccccc54)c3=O)C[C@@H]21 (relative stereo) [Example 3, 3-[2-(cis-6-Methoxy-2,3,3a,4,5,9b-hexahydro-1H]-benz[e]isoindol-1-yl)ethyl]-benzofuro[3,2-d]pyrimidine-2,4(1H,3H)-dione hydrochloride] | 8.4 | –
3 | COc1cccc2c1[C@@H]1CN(CCCn3c(=O)[nH]c4c(sc5ccccc54)c3=O)C[C@@H]1CC2 (relative stereo) [Example 6, hydrochloride] | 6.91 | –
4 | COc1cccc2c1CC[C@H]1CN(CCn3c(=O)[nH]c4sc5c(c4c3=O)CCCC5)C[C@@H]21 (relative stereo) [Example 7, 3-[2-(cis-6-Methoxy-2,3,3a4,5,9b-hexahydro-[1H]-benz[e]isoindol-1-yl)ethyl]-[1]-5,6,7,8-tetrahydrobenzothieno[2,3-d]pyrimidine-2,4(1H,3H)-dione hydrochloride] | 7.85 | –
5 | COc1cccc2c1CC[C@H]1CN(CCCCn3c(=O)[nH]c4c(sc5ccccc54)c3=O)C[C@@H]21 (relative stereo) [Example 12, 3-[4-(cis-6-Methoxy-2,3,3a,4,5,9b-hexahydro-[1H]-benz[e]isoindol-1-yl)butyl]-[1]benzothieno[3,2-d]pyrimidine-2,4(1H,3H)-dione hydrochloride] | 7.33 | –
6 | COc1cccc2c1CC[C@H]1CN(CCn3c(=O)[nH]c4sc5ccccc5c4c3=O)C[C@@H]21 (relative stereo) [Example 13, 3-[2-(cis-6-Methoxy-2,3,3a,4,5,9b-hexahydro-[1H]-benz[e]isoindol-1-yl)ethyl]-[1]benzothieno[2,3-d]pyrimidine-2,4(1H,3H)-dione hydrochloride] | 7.68 | –
7 | COc1cccc2c1[C@@H]1CN(CCCCn3c(=O)[nH]c4c(sc5ccccc54)c3=O)C[C@@H]1CC2 (relative stereo) [Example 15, 3-[4-(cis-9-Methoxy-2,3,3a,4,5,9b-hexahydro-1H]-benz[e]isoindol-1-yl)butyl]-[1]benzothieno[3,2-d]pyrimidine-2,4(1H,3H)-dione hydrochloride] | 7.34 | –
8 | O=c1[nH]c2c(sc3ccccc32)c(=O)n1CCN1C[C@@H]2CCc3c(O)cccc3[C@@H]2C1 (relative stereo) [Example 20, 3-2-(cis-6-Hydroxy-2,3,3a,4,5,9b-hexahydro-[1H]-benz[e]isoindol-1-yl)ethyl]-[1]benzothieno[3,2-d]pyrimidine-2,4(1H,3H) -dione hydrobromide] | 7.43 | –
9 | COc1cccc2c1CC[C@H]1CN(CCn3c(=O)[nH]c4cc5ccccc5cc4c3=O)C[C@@H]21 (relative stereo) [Example 21, 3-[2-(cis-6-Methoxy-2,3,3a,4,5,9b-hexahydro-[1H]-benz[e]isoindol-1-yl)ethyl]-benzo[g]quinazoline-2,4(1H,3H):dione hydrochloride] | 7.43 | –
10 | COc1cccc2c1CC[C@H]1CN(CCn3c(=O)[nH]c4c5c(sc4c3=O)CCCC5)C[C@@H]21 (relative stereo) [Example 22, hydrochloride] | 8.32 | –
11 | COc1cccc2c1CC[C@H]1CN(CCn3c(=O)[nH]c4c(oc5ncccc54)c3=O)C[C@@H]21 (relative stereo) [Example 27, 3-[2-(cis-6-Methoxy-2,3,3a,4,5,9b-hexahydro-[1H]-benz[e]isoindol-1-yl)ethyl]-pyrido[3',2':4,5]furo[3,2-d]pyrimidine-2,4(1H,3H)-dione hydrochloride] | 8.72 | –
12 | COc1cccc2c1CC[C@H]1CN(CCn3cnc4c(sc5ccccc54)c3=O)C[C@@H]21 (relative stereo) [Example 28, dihydrochloride] | 7.75 | –
13 | COc1cccc2c1CC[C@H]1CN(CCn3c(C)nc4c(sc5ccccc54)c3=O)C[C@@H]21 (relative stereo) [Example 29, dihydrochloride] | 7.43 | –
14 | COc1cccc2c1CC[C@H]1CN(CCn3c(-c4ccccc4)nc4c(sc5ccccc54)c3=O)C[C@@H]21 (relative stereo) [Example 30, 3-[2-(cis-6-Methoxy-2 3 3a,4,5,9b-hexahydro-[1H]-benz[e]isoindol-1-yl)ethyl]-2-phenyl-[1]benzothieno[3,2-d]-4(1H,3H)-one hydrochloride] | 7.06 | –
15 | COc1cccc2c1[C@H]1CN(CCn3c(=O)[nH]c4c(sc5ccccc54)c3=O)C[C@H]1CC2 [Example 19, hydrochloride] | 6.66 | –
16 | COc1cccc2c1[C@@H]1CN(CCn3c(=O)[nH]c4c([nH]c5ccccc54)c3=O)C[C@@H]1CC2 [Example 24, hydrochloride] | 8.6 | –
17 | COc1cccc2c1CC[C@H]1CN(CCn3c(=O)[nH]c4c(sc5cc(C(F)(F)F)ccc54)c3=O)C[C@@H]21 [Example 32, 3-[2-((3aR,9bR)-cis76-Methoxy-2,3,3a,4,5,9b-hexahydro-[1-benz[e]isoindol-1-yl)ethyl]-7-trifluoromethyl[1]benzothieno[23-d]pyrimidine-2,4(1H,3H)-dione hydrochloride] | 7.46 | –

Next, values leading:

Row | pA2 Dog Prostate [α-1A] | pA2 Dog Prostate [α-1A] (hydrochloride) | SMILES
18 | 8.00 | – | O=c1[nH]c2c(sc3ncccc32)c(=O)n1CCN1C[C@@H]2CCc3c(ccc4c3OCO4)[C@@H]2C1 (relative stereo) [Example 111, hydrochloride]
19 | 6.56 | – | COc1cccc2c1CC[C@H]1CN(CCn3c(=O)c4sc5ccccc5c4n(C)c3=O)C[C@@H]21 [Example 33, hydrochloride]
20 | 9.15 | – | COc1cccc2c1CC[C@H]1CN(CCn3cnc4c(sc5ncccc54)c3=O)C[C@@H]21 [Example 34, 3-[2-((3aR,9bR)-cis-6-Methoxy-2,3,3a,4,5,9b-hexahydro-[1H]-benz[e]isoindol-1-yl)ethyl]-pyrido[3',2':4,51thieno[3,2:d]pyrimidine-4(3H)-one dihydrochloride]
21 | – | 8.74 | COc1cccc2c1CC[C@H]1CN(CCn3c(=O)[nH]c4c(sc5cccc(C)c54)c3=O)C[C@@H]21 [Example 35, 3-2-((3aR,9bR)-cis-6-Methoxy-2,3,3a,4,5,9b-hexahydro-[1H]-benz[e]isoindol-1-yl)ethyl]-9-methyl[1]benzothieno[3,2-d]pyrimidine-2,4(1H,3H)-dione hydrochloride]
22 | 9.15 | – | COc1cccc2c1CC[C@H]1CN(CCn3c(=O)[nH]c4c(sc5cccnc54)c3=O)C[C@@H]21 [Example 37, dihydrochloride]
23 | 9.75 | – | COc1cccc2c1CC[C@H]1CN(CCn3c(=O)[nH]c4c(sc5ccncc54)c3=O)C[C@@H]21 [Example 38, 3-[2-((3aR,9bR)-cis-6-Methoxy-2,3,3a,4,5,9b-hexahydro-[1H]-benz[e]isoindol-1-yl)ethyl]1-pyrido[3',4':4,5]thieno[3,2-d]pyrimidine-2,4(1H,3H)-dione dihydrochloride]
24 | 9.72 | – | COc1cccc2c1CC[C@H]1CN(CCn3c(=O)[nH]c4c(sc5ncncc54)c3=O)C[C@@H]21 [Example 40, 3-[2-(cis-(3aR,9bR)-6-Methoxy-2,3,3a,4,5,9b-hexahydro-[1H]-benz[e]isoindol-1-yl)ethyl]-thieno[2,3-d:4,5]dipyrimidine-2,4(1H,3H)-dione]
25 | 9.03 | – | COc1cccc2c1CC[C@H]1CN(CCn3c(=O)[nH]c4c(sc5cncnc54)c3=O)C[C@@H]21 [Example 41]
26 | 9.09 | – | COc1cccc2c1CC[C@H]1CN(CCn3c(=O)[nH]c4c(sc5cc(C#N)ccc54)c3=O)C[C@@H]21 [Example 42, 3-[2-((3aR,9bR)-cis-6-Methoxy-2,3,3a,4,5,9b-hexahydro-[1H]-benz[e]isoindol-1-yl)ethyl]-[1]-7-cyano-benzothieno[3,2-d]pyrimidine-2,4(1H,3H)-dione hydrochloride]
27 | 8.44 | – | COc1cccc2c1CC[C@H]1CN(CCn3c(=O)[nH]c4c(sc5ccc(C#N)cc54)c3=O)C[C@@H]21 [Example 43, 3-[2-((3aR,9bR)-cis-6-Methoxy-2,3,3a,4,5,9b-hexahydro-[1H]-benz[e]isoindol-1-yl)ethyl]-[1]-8-cyano-benzothieno[3,2-d]pyrimidine-2,4(1H,3H)-dione hydrochloride]
28 | 8.09 | – | COC(=O)c1ccc2sc3c(=O)n(CCN4C[C@@H]5CCc6c(OC)cccc6[C@@H]5C4)c(=O)[nH]c3c2c1 [Example 44, 3-[2-((3aR,9bR)-cis-6-Methoxy-2,3,3a,4,5,9b-hexahydro-[1H]-benz[e]isoindol-1-yl)ethyl]-[1]-8-carbomethoxy-benzothieno[3,2-d]pyrimidine-2,4(1H,3H)-dione hydrochloride]
29 | 9.48 | – | COc1cccc2c1CC[C@H]1CN(CCn3c(=O)[nH]c4c(sc5ccc(C(=O)N(C)C)cc54)c3=O)C[C@@H]21 [Example 45, hydrochloride]

Reference: US5597823A, “Tricyclic substituted hexahydrobenz [e]isoindole alpha-1 adrenergic antagonists” (priority 1995, dated 1997)
